{"source": "patent US20210038579A1", "about": "“Treatment Of Patients With Classic Fabry Disease” (Amicus Therapeutics, Inc., priority 2018, published 2021)", "key": {"[1]": {"test_system": "GL-3 inclusions per kidney interstitial capillary", "experiment": "Phase 3 study, ERT-naïve Fabry patients: kidney histology assessment", "format": "in vivo, human", "description": "Kidney Histology Assessment. Each patient underwent a baseline kidney biopsy, as well as repeat kidney biopsies at 6 and 12 months. The number of GL-3 inclusions per kidney interstitial capillary per patient at baseline, and at 6 and 12 months was quantitatively assessed in 300 capillaries by 3 independent pathologists blinded to treatment and visit. All values for each individual biopsy at a given time were averaged prior to statistical analysis.\nStatistical Analyses for Kidney Interstitial Capillary GL-3 Substrate. The primary Stage 1 (6 month) endpoint (i population with baseline biopsies, n=64) was the proportion of patients in the migalastat and placebo groups with a ≥50% reduction in GL-3 inclusions per kidney interstitial capillary. Two other Stage 1 endpoints were assessed (modified-ITT population: randomized patients with paired baseline and month 6 biopsies; n=60): percent change in GL-3 inclusions per kidney interstitial capillary, and percent of interstitial capillaries with zero GL-3 inclusions.\nEfficacy analyses for GL-3 inclusions per kidney interstitial capillary and other pre-specified endpoints in Stage 2 (months 6-12) and the open-label-extension (months 12-24) were based on the modified intention to treat (mITT)—population consisting of randomized patients with mutant α-Gal A enzyme shown to be suitable for migalastat treatment by the validated assay; n=50).\n(§1) For all outcomes except GL-3 inclusions per kidney interstitial capillary, data are pooled for patients within phenotype subgroups regardless of treatment allocation for the first six months (migalastat or placebo)."}, "[2]": {"molecular_target": "T1, α-Gal A mutant form p.Ile317Thr (c.950 T > C) (Homo sapiens, UniProt P06280, I317T)", "T1 construct": "expressed in transfected cells; host or cells: HEK-293", "T1 sequence (P06280 32-429 I317T)": "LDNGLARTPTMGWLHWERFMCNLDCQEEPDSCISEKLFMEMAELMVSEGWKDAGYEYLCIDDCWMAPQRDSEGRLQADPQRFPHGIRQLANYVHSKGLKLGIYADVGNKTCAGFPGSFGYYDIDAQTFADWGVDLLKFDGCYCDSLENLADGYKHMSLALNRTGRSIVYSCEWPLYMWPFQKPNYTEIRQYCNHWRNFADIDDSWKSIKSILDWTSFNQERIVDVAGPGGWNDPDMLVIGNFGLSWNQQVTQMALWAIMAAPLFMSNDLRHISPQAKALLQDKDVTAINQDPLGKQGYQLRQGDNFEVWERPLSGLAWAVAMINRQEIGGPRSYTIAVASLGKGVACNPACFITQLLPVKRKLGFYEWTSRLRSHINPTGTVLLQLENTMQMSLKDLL", "experiment": "HEK assay: α-Gal A activity in HEK-293 cell lysate with migalastat", "format": "cell-based", "description": "(§2) Such mutations are also referred to herein as “HEK assay amenable” mutations.\n(§3) In this assay, cDNA constructs are created. The corresponding α-Gal A mutant forms are transiently expressed in HEK-293 cells. Cells are then incubated±migalastat (17 nM to 1 mM) for 4 to 5 days. After, α-Gal A levels are measured in cell lysates using a synthetic fluorogenic substrate (4-MU-α-Gal) or by western blot. This has been done for known disease-causing missense or small in-frame insertion/deletion mutations."}, "[3]": {"experiment": "Phase 3 study, ERT-naïve Fabry patients: Gastrointestinal Symptoms Rating Scale for Diarrhea (GSRS-D)", "format": "in vivo, human", "conditions": "for mean change in GSRS-D: total amenable patient population", "description": "Patient Enrollment. […] Study Design. […] Patient-Reported Outcomes. Patient-reported outcomes were assessed using the Gastrointestinal-Symptoms-Rating-Scale (GSRS), Short Form-36v2TM and Brief-Pain-Inventory-Pain-Severity-Component. For all outcomes except GL-3 inclusions per kidney interstitial capillary, data are pooled for patients within phenotype subgroups regardless of treatment allocation for the first six months (migalastat or placebo)."}, "[4]": {"experiment": "Phase 3 study, ERT-naïve Fabry patients: echocardiography (LVMi)", "format": "in vivo, human", "conditions": "for mean (SD) change in LVMi: baseline (or month 6) to month 24; for LVMi change: after 24 months of treatment", "description": "Patient Enrollment. […] Study Design. […] Echocardiography. LVMi, left posterior wall thickness, diastolic, interventricular septum thickness, diastolic and other parameters were assessed through blinded, centralized evaluation. For all outcomes except GL-3 inclusions per kidney interstitial capillary, data are pooled for patients within phenotype subgroups regardless of treatment allocation for the first six months (migalastat or placebo)."}, "plasma lyso-Gb3": {"test_system": "plasma lyso-Gb3", "experiment": "Phase 3 study, ERT-naïve Fabry patients: plasma lyso-Gb3 by liquid chromatography-mass-spectroscopy", "format": "in vivo, human", "conditions": "baseline (or month 6) to month 24", "description": "Globotriaosylceramide and Globotriaosylsphingosine. Plasma lyso-Gb3 and 24-hour urine GL-3 were analyzed by liquid chromatography-mass-spectroscopy using a novel stable isotope-labeled internal standard, 13C6-lyso-Gb3 (lower-limit-of-quantification: 0.200 ng/mL, 0.254 nmol/L).\nas §1"}, "[5]": {"experiment": "Phase 3 study, ERT-naïve Fabry patients: safety analysis and adverse events", "quoted_text": "(§4) Study Design. Following eligibility-baseline assessments (2 months), patients were randomized to Stage 1—6 months of double-blind administration of 150 mg migalastat hydrochloride or placebo every other day. All patients completing Stage 1 were eligible to receive open-label migalastat in Stage 2 (months 6-12) and for an additional year (months 13-24) thereafter. […] Study completers were eligible to enroll in the open-label extension study for up to 5 years.\n(§5) Safety Analysis and Adverse Events. Randomized patients receiving ≤1 dose were included in the safety analysis, which comprised vital signs, physical exams, electrocardiograms, clinical labs, and adverse events."}, "[6]": {"conditions": "human, in vivo", "quoted_text": "as §4, §5"}, "α-Gal A mutant forms": {"test_system": "α-Gal A mutant forms", "experiment": "HEK assay: means over groups of GLA mutations found in enrolled patients", "format": "cell-based, human", "conditions": "10 μM of migalastat", "description": "as §2, §3"}, "[7]": {"conditions": "+10 μM migalastat, HEK-293 cell lysate, mean ± SEM, n = 20"}, "[8]": {"conditions": "open-label-extension, 6/57 patients"}, "[9]": {"conditions": "GLA mutations of enrolled patients reported as associated with the classic phenotype in the literature"}}}
{"smiles": "OC[C@H]1NC[C@H](O)[C@@H](O)[C@H]1O", "note": "[migalastat]", "values": [{"measurement": "mean (SD) change in GL-3 inclusions per kidney interstitial capillary", "setting": "[1]; classic male patients switched from placebo to migalastat at month 6, next 6 months", "value": "−0.7 (0.91)"}, {"measurement": "mean change in GL-3 inclusions", "setting": "[1]; total amenable patient population, 6 months of migalastat treatment", "value": "−0.25"}, {"measurement": "mean change in GL-3 inclusions", "setting": "[1]; total patient population, after switching from placebo to migalastat at month 6", "value": "−0.33"}, {"measurement": "α-Gal A activity at 10 μM (fold over baseline)", "setting": "[2]; 10 μM migalastat", "value": 3.40, "unit": "fold over baseline"}, {"measurement": "+Migalastat α-Gal A activity", "setting": "[2]; [7]", "value": "7812 ± 530", "unit": "nmol/mg/h"}, {"measurement": "+Migalastat α-Gal A activity % WT", "setting": "[2]; [7]", "value": "23.6 ± 1.0", "unit": "% WT"}, {"measurement": "activation at 10 µM", "setting": "[2]; HEK293, 10 μM migalastat minus baseline, read-out: Absolute increase at 10 μM (% WT)", "value": 17, "unit": "%"}, {"measurement": "classic male patients with diarrhea at baseline achieving MCID reduction of 0.33 in GSRS-D", "setting": "[3]; 7 of the 8 patients, by 24 months", "value": 88, "unit": "%"}, {"measurement": "mean (SD) change from baseline (or month 6) in diarrhea symptoms (GSRS-D)", "setting": "[3]; classic male patients, by 24 months", "value": "−0.9 (1.75)"}, {"measurement": "mean (SD) change in GSRS-D", "setting": "[3]; other patients, month 24", "value": "−0.5 (1.01)"}, {"measurement": "mean change in GSRS-D", "setting": "[3]; month 6", "value": "−0.3"}, {"measurement": "mean change in GSRS-D", "setting": "[3]; month 24", "value": "−0.5"}, {"measurement": "classic male patients with data reporting a reduction in LVMi", "setting": "[4]; classic male patients, age range 16-61 years", "value": "7/8"}, {"measurement": "mean (SD) change in LVMi", "setting": "[4]; classic males", "value": "−16.7 (18.64) g/m^2"}, {"measurement": "mean (SD) change in LVMi", "setting": "[4]; other patients", "value": "−3.2 (18.66) g/m^2"}, {"measurement": "LVMi change", "setting": "[4]; overall migalastat-treated population", "value": "−7.7", "unit": "g/m^2"}, {"measurement": "LVMi change", "setting": "[4]; patients with LVH", "value": "−18.6", "unit": "g/m^2"}, {"measurement": "average (SD) change in plasma lyso-Gb3", "setting": "plasma lyso-Gb3; classic males", "value": "−36.04 (34.48) nmol/L"}, {"measurement": "average (SD) change in plasma lyso-Gb3", "setting": "plasma lyso-Gb3; other patients", "value": "−16.33 (19.73) nmol/L"}, {"measurement": "patients with nasopharyngitis", "setting": "[5]; Stage 1, 6/34 patients receiving migalastat", "value": 18, "unit": "%"}, {"measurement": "patients with headache", "setting": "[5]; Stage 1, 12/34 patients receiving migalastat", "value": 35, "unit": "%"}, {"measurement": "patients experiencing serious adverse events", "setting": "[5]; Stage 1, migalastat group", "value": 2, "unit": "patients"}, {"measurement": "patients experiencing serious adverse events", "setting": "[5]; Stage 2", "value": 5, "unit": "patients"}, {"measurement": "patients with procedural pain (related to kidney biopsies)", "setting": "[5]; Stage 2, 7/63 patients", "value": 11, "unit": "%"}, {"measurement": "patients with headache", "setting": "[5]; Stage 2, 9/63 patients", "value": 14, "unit": "%"}, {"measurement": "end-stage renal disease, cardiac death, stroke", "setting": "[5]; as defined in Banikazemi et al.", "value": "no progression to end-stage renal disease, no cardiac death and no stroke"}, {"measurement": "patients who discontinued migalastat due to serious adverse events", "setting": "[5]; both deemed unrelated to migalastat", "value": "Two"}, {"measurement": "serious adverse events assessed as possibly related to migalastat by the investigator", "setting": "[5]; fatigue and paresthesia, same patient, months 12-24, resolved", "value": "Two"}, {"measurement": "adverse events leading to migalastat discontinuation", "setting": "[5]; human, in vivo", "value": "No adverse events led to migalastat discontinuation"}, {"measurement": "vital sign, physical findings, laboratory, and ECG parameters", "setting": "[5]; human, in vivo", "value": "did not reveal any clinically relevant effect"}, {"measurement": "transient ischemic attack", "setting": "[5]; judged unrelated to migalastat", "value": "single case"}, {"measurement": "severity of adverse events", "setting": "[5]; most adverse events", "value": "mild or moderate in severity"}, {"measurement": "patients experiencing serious adverse events", "setting": "[5]; open-label-extension", "value": 11, "unit": "patients"}, {"measurement": "patients with (treatment-emergent) proteinuria", "setting": "[5]; open-label-extension (months 12-24), 9/57 patients", "value": 16, "unit": "%"}, {"measurement": "patients with bronchitis", "setting": "[5]; [8]", "value": 11, "unit": "%"}, {"measurement": "patients with headache", "setting": "[5]; [8]", "value": 11, "unit": "%"}, {"measurement": "patients in whom 24-hour urine protein remained stable during migalastat treatment", "setting": "[5]; patients with baseline proteinuria <300 mg/24-h", "value": "23/28"}, {"measurement": "deaths", "setting": "[6]", "value": "No deaths were reported"}, {"measurement": "mean absolute increase in α-Gal A activity", "setting": "α-Gal A mutant forms; [9]", "value": "24.8 % of WT"}, {"measurement": "mean activity increase over baseline", "setting": "α-Gal A mutant forms; [9]", "value": 8.2, "unit": "fold over baseline"}, {"measurement": "mean absolute increase in α-Gal A activity", "setting": "α-Gal A mutant forms; all other mutations", "value": "24.5 % of WT"}, {"measurement": "mean activity increase over baseline", "setting": "α-Gal A mutant forms; all other mutations", "value": 6.8, "unit": "fold over baseline"}]}
